Columns and labels:
Mus musculus [1] = assay: Acute toxicity in Swiss albino mouse assessed as behavioral changes at 50 to 100 mg/kg, po measured up to 14 days; assay type: organism-based; set-up: dose 50-100 mg/kg, route oral; settings: in vivo, 336 h
[2] = Selectivity ratio of IC50 for ovine recombinant COX-1 to IC50 for human recombinant COX-2
Mus musculus [3] = assay: Analgesic activity in Swiss albino mouse assessed as time of licking paws at 50 mg/kg, po measured after 2 hrs by tail flick test relative to control; assay type: functional
Mus musculus [4] = assay: Acute toxicity in Swiss albino mouse assessed as weight loss at 50 to 100 mg/kg, po measured up to 14 days; assay type: organism-based; set-up: dose 50-100 mg/kg, route oral; settings: in vivo, 336 h
Mus musculus [5] = assay: Analgesic activity in Swiss albino mouse assessed as time of licking paws at 100 mg/kg, po measured after 2 hrs by tail flick test relative to control; assay type: functional
Mus musculus [6] = assay: Analgesic activity in Swiss albino mouse assessed as latancy of withdrawing tail at 100 mg/kg, po measured after 2 hrs by tail flick test relative to control; assay type: functional
Mus musculus [7] = assay: Acute toxicity in Swiss albino mouse assessed as mortality at 50 to 100 mg/kg, po measured after 6 hrs to 14 days; assay type: organism-based; set-up: dose 50-100 mg/kg, route oral; settings: in vivo
Mus musculus [8] = assay: Antiinflammatory activity in Swiss albino mouse assessed as inhibition of carrageenan-induced paw edema at 50 mg/kg, po administered 1 hr prior to carrageenan challenge measured after 2 hrs relative to control; assay type: functional; set-up: scale not given: the % may be the effect or the level left
Mus musculus [9] = assay: Gastrointestinal toxicity in Swiss albino mouse assessed as ulcer index at 50 mg/kg, po measured after 2 hrs; assay type: organism-based; set-up: dose 50 mg/kg, route oral; settings: in vivo
Mus musculus [10] = assay: Gastrointestinal toxicity in Swiss albino mouse assessed as ulcer index at 100 mg/kg, po measured after 2 hrs; assay type: organism-based; set-up: dose 100 mg/kg, route oral; settings: in vivo
[11] = molecular target: T1, Prostaglandin G/H synthase 1 (Ovis aries, UniProt P05979); assay: Inhibition of ovine recombinant COX-1 using […] as substrate incubated for 10 mins prior to arachidonic acid addition measured after 2 mins by EIA
T1 sequence (P05979 whole entry): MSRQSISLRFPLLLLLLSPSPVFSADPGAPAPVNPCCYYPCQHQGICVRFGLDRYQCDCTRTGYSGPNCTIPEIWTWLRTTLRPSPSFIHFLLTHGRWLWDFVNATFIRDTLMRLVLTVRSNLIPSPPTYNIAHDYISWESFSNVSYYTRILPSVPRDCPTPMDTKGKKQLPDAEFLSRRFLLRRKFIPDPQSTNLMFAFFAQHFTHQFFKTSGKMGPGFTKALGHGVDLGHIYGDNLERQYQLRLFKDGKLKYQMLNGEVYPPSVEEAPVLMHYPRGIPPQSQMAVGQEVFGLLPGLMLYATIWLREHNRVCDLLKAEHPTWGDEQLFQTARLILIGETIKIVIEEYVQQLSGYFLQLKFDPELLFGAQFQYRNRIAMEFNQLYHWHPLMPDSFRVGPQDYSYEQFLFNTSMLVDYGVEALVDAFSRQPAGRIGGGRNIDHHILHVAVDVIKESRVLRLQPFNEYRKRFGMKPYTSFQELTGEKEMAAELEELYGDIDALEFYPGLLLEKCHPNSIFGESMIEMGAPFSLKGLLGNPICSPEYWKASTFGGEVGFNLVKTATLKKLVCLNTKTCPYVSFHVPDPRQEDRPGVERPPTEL

[12] = molecular target: T2, Prostaglandin G/H synthase 2 (Homo sapiens, UniProt P35354); assay: Inhibition of human recombinant COX-2 using […] as substrate incubated for 10 mins prior to arachidonic acid addition measured after 2 mins by EIA
T2 sequence (P35354 whole entry): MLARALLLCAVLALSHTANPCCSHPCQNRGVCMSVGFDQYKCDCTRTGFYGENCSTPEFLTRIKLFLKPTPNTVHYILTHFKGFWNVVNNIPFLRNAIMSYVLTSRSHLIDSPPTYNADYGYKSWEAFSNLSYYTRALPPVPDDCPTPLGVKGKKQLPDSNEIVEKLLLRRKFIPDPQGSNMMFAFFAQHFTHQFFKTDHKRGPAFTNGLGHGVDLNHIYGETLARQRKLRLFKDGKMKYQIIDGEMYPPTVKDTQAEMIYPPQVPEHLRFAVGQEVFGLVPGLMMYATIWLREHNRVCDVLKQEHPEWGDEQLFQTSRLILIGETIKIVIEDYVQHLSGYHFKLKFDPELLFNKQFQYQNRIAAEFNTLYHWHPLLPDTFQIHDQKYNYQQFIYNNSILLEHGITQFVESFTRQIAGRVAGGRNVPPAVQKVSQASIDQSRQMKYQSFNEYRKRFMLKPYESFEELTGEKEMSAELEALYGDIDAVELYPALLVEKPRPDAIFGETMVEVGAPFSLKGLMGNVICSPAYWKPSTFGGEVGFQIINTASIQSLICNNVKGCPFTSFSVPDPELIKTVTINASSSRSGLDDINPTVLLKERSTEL

Mus musculus [13] = assay: Analgesic activity in Swiss albino mouse assessed as latancy of withdrawing tail at 50 mg/kg, po measured after 2 hrs by tail flick test relative to control; assay type: functional
Mus musculus [14] = assay: Antiinflammatory activity in Swiss albino mouse assessed as inhibition of carrageenan-induced paw edema at 100 mg/kg, po administered 1 hr prior to carrageenan challenge measured after 2 hrs relative to control; assay type: functional; set-up: scale not given: the % may be the effect or the level left

SMILES | Activity (Mus musculus [1]) | Ratio IC50 [2] | MPE (Mus musculus [3]) [%] | Activity (Mus musculus [4]) | MPE (Mus musculus [5]) [%] | MPE (Mus musculus [6]) [%] | Activity (Mus musculus [7]) | Activity (Mus musculus [8]) [%] | UI (Mus musculus [9]) | UI (Mus musculus [10]) | IC50 [11] [µM] | IC50 [12] [µM] | MPE (Mus musculus [13]) [%] | Activity (Mus musculus [14]) [%]
COc1ccc2cc(C(C)c3nc4s/c(=C\c5ccc(C(C)C)cc5)c(=O)n4n3)ccc2c1 (configuration not stated) | Non-toxic | < 0.796 | 27.6 | Non-toxic | 22 | 17.9 | Non-toxic | 29.3 | 2.6 | 2.4 | 79.6 | > 100 | 36.9 | 43.3
COc1ccc2cc(C(C)c3nc4s/c(=C\c5ccc(-c6ccccc6)cc5)c(=O)n4n3)ccc2c1 (configuration not stated) | Non-toxic | – | 42.1 | Non-toxic | 39.8 | 49.1 | Non-toxic | 45.3 | 1.3 | 2.6 | > 100 | > 100 | 47.1 | 40.9
COc1ccc2cc(C(C)c3nc4s/c(=C\c5ccc6ccccc6c5)c(=O)n4n3)ccc2c1 (configuration not stated) | Non-toxic | – | 17.7 | Non-toxic | 30.3 | 32.2 | Non-toxic | 37.9 | 2 | 3.4 | – | – | 30 | 44.9
COc1ccc2cc(C(C)c3nc4s/c(=C\c5ccc(OC(C)=O)cc5)c(=O)n4n3)ccc2c1 (configuration not stated) | Non-toxic | – | 24.9 | Non-toxic | 19.9 | 18.2 | Non-toxic | 36.2 | 2.9 | 2.7 | – | – | 23.3 | 33.6
COc1ccc2cc(C(C)c3nc4s/c(=C\c5ccc(OCc6ccccc6)cc5)c(=O)n4n3)ccc2c1 (configuration not stated) | Non-toxic | – | 23.6 | Non-toxic | 14.5 | 28.1 | Non-toxic | 44.5 | 3 | 2.7 | – | – | 24.4 | 32.5
COc1ccc2cc(C(C)c3nc4s/c(=C\c5cccc(OCc6ccccc6)c5)c(=O)n4n3)ccc2c1 (configuration not stated) | Non-toxic | – | 21.5 | Non-toxic | 19.2 | 22.3 | Non-toxic | 37.9 | 2.9 | 2.9 | – | – | 24.8 | 34.4
COc1ccc2cc(C(C)c3nc4s/c(=C\c5cn(C(C)=O)c6ccccc56)c(=O)n4n3)ccc2c1 (configuration not stated) | Non-toxic | – | 17.5 | Non-toxic | 18.7 | 28.3 | Non-toxic | 37.7 | 2.7 | 2.4 | – | – | 30.8 | 43.3
COc1ccc2cc(C(C)c3nc4s/c(=C\c5cccc(OC(C)=O)c5)c(=O)n4n3)ccc2c1 (configuration not stated) | Non-toxic | – | 17.5 | Non-toxic | 20.7 | 20 | Non-toxic | 31.6 | 2.9 | 2.4 | – | – | 19.2 | 29.1
COc1ccc2cc(C(C)c3nc4s/c(=C\c5cc(Br)cs5)c(=O)n4n3)ccc2c1 (configuration not stated) | Non-toxic | – | 20.1 | Non-toxic | 21.2 | 19 | Non-toxic | 43 | 2.9 | 2.9 | – | – | 28.7 | 32.3
COc1ccc2cc(C(C)c3n[nH]c(=S)[nH]3)ccc2c1 (configuration not stated) | Non-toxic | – | 18.7 | Non-toxic | 8.2 | 22.2 | Non-toxic | 30.1 | 2.1 | 2.3 | – | – | 16.8 | 21.3
COc1ccc2cc(C(C)c3nc4s/c(=C\c5ccccc5OC(C)=O)c(=O)n4n3)ccc2c1 (configuration not stated) | Non-toxic | – | 19.8 | Non-toxic | 27 | 13.3 | Non-toxic | 26.6 | 2.9 | 3 | – | – | 27.8 | 44.9
COc1ccc2cc(C(C)c3nc4s/c(=C\c5ccco5)c(=O)n4n3)ccc2c1 (configuration not stated) | Non-toxic | – | 19.7 | Non-toxic | 22 | 19.3 | Non-toxic | 15.2 | 2.6 | 1.9 | – | – | 13.3 | 26

Source: ChEMBL document CHEMBL3400056, “Novel thiazolo[3,2-b]-1,2,4-triazoles derived from naproxen with analgesic/anti-inflammatory properties: Synthesis, biological evaluation and molecular modeling studies” (Bioorg Med Chem, 2015)
